{
  "source": "patent US10472677B2",
  "about": "“Translational dysfunction based therapeutics” (Translational Therapeutics, Inc., priority 2005, dated 2019)",
  "key": {"eIF4E": {"molecular_target": "eIF4E (Homo sapiens, UniProt P06730)", "sequence (P06730 whole entry, species assumed)": "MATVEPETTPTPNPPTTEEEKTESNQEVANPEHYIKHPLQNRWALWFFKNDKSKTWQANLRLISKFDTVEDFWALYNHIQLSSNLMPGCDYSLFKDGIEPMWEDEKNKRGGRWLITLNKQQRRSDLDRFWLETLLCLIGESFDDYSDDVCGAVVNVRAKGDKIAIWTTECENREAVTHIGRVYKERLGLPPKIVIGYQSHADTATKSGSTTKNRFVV", "conditions": "cited from earlier work"}, "cap-driven translation": {"system": "cap-driven translation", "conditions": "cited from earlier work"}, "4E-SE mRNA export": {"system": "4E-SE mRNA export", "assay": "export of LacZ-4E-SE mRNA (c/n ratio, real time PCR) in eIF4E overexpressing U2OS cells", "format": "cell-based, human", "conditions": "for export of 4E-SE containing / cyclin D1 mRNA under inhibition of RNA or protein synthesis: actinomycin D 10 μg/ml, cycloheximide 100 μg/ml, 1 hour", "method": "eIF4E and PML stably transfected NIH3T3 and U937 cells were as described (Topisirovic et al., 2002; Topisirovic et al., 2003a). U937 cells were used to analyze endogenous Pim1, which is not expressed in NIH3T3 cells. LacZ/LacZ-4E-SE with or without 2Flag-eIF4E as well as TetON LacZ system were stably transfected in U2OS cells. For NXF1 depletion, U2OS cells were transfected with Lipofectamine 2000 and 10 nM siRNA duplex HSC.RNAI.N006362.1.3 (IDT) according to the manufacturer's instruction. Cells were analyzed 72 h after transfection. Actinomycin D, cycloheximide and leptomycin B were all cell culture grade (Sigma).\nImmunopurification was as previously published (Culjkovic et al., 2005). Real Time PCR analyses were performed using Sybr Green PCR Master mix (ABI) in Mx3000P™ thermal cycler (Stratagene), and data analyzed with MxPro software (Stratagene). All conditions were described previously (Culjkovic et al., 2005). All calculations were done using the relative standard curve method described in Applied Biosystems User Bulletin #2.\nFractionation and RNA isolation were as described (Lai and Borden, 2000; Topisirovic et al., 2002). Probes for U6 and tRNAlys for Northern blot analysis were previously described (Topisirovic et al., 2002)."}, "[1]": {"molecular_target": "T1, nuclear eIF4E-cyclin D1 mRNA association (Homo sapiens, UniProt P06730)", "T1 construct": "endogenous in cells; host or cells: HEK293T cells, nuclear lysate", "T1 sequence (P06730 2-217 limits assumed)": "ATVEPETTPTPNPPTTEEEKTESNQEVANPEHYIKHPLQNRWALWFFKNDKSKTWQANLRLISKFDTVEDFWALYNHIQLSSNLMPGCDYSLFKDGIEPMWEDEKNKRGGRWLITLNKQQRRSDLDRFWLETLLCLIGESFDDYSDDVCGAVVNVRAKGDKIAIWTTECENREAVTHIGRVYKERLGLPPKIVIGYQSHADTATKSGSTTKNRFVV", "assay": "eIF4E immunoprecipitation from nuclear lysates with cap analogue competition, RT-PCR", "format": "biochemical", "conditions": "50 uM analogue"}, "[2]": {"molecular_target": "cap-binding complex (CBC) (Homo sapiens, UniProt P52298)", "sequence (P52298 whole entry)": "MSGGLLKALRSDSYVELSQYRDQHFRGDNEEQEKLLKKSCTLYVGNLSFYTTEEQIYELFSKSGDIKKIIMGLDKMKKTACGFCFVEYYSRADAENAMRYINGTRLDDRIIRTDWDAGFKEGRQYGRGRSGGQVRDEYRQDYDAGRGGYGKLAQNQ", "sequence (Q09161 whole entry partner)": "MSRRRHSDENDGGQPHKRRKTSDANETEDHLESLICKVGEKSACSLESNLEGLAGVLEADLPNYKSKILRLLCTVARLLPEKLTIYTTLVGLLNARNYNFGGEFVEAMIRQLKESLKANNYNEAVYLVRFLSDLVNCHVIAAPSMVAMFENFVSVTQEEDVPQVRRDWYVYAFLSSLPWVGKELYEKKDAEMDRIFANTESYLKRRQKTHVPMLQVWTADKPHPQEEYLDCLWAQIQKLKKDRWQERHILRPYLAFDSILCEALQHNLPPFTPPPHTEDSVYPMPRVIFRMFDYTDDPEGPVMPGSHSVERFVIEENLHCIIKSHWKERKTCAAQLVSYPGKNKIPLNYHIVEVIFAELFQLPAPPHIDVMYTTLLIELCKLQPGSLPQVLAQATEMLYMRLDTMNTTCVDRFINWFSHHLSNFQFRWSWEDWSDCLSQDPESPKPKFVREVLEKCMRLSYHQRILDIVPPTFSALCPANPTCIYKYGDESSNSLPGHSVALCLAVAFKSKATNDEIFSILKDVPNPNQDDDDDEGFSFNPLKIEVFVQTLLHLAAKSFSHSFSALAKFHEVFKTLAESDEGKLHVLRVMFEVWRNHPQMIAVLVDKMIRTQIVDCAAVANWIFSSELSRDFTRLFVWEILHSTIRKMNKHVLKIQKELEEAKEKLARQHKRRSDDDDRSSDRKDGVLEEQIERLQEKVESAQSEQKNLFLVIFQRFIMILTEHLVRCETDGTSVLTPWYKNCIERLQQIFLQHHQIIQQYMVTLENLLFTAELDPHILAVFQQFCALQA", "conditions": "cited from earlier work"}, "eIF4E wild-type": {"molecular_target": "T2, eIF4E wild-type (Mus musculus, UniProt P63073)", "T2 construct": "made in house", "T2 sequence (P63073 whole entry, the tested form may be a part)": "as the sequence (P06730 whole entry, species assumed) above, with P12T, T16P, T17A, E174D counted along it", "assay": "tryptophan fluorescence quenching titration of nucleoside/nucleotide binding", "method": "For fluorescence titrations, mouse eIF4E, which differs from human eIF4E by four nonconserved amino acids, was produced as described. For NMR spectroscopy, mouse eIF4E was expressed as a fusion with the B1 domain of protein G (G4E, kind gift of Gerhard Wagner, Harvard University, Cambridge, Mass.), in BL21 (DE-3) cells by induction with 0.8 mM isopropyl-β-D-thiogalactopyranoside at 18° C. for 20 h in M9 minimal media containing 1 g/l ^15NH4Cl as the sole nitrogen source (Cambridge Isotopes). Cells were lysed at 4° C. by sonication in 0.1 M NaCl/50 mM Tris.HCl (pH 7.5/0.5 mM EDTA/0.5% (vol/vol) Nonidet P-40/10 mM 2-mercaptoethanol/1 mM PMSF. Lysates were cleared by centrifugation at 30,000×g, adsorbed onto m^7G diphosphate-conjugated agarose (Amersham Pharmacia), and extensively washed with 0.1 M NaCl/20 mM Tris.HCl (pH 7.5)/0.5 mM EDTA (Buffer A) at 4° C. Subsequently, beads were washed with 0.1 mM GTP in Buffer A, and G4E was eluted with 5 mM m^7G in Buffer A. Eluate was diluted with 20 mM Na2PO4 (pH 7.5) to reduce NaCl concentration to 50 mM, applied to Sepharose Q anion exchange column (Amersham Pharmacia), and eluted with a linear gradient of NaCl in 20 mM Na2PO4 (pH 7.5) at 4° C. Eluate was dialyzed extensively against 0.1 M NaCl/50 mM Na2PO4 (pH 6.5)/5 mM DTT at 4° C. to produce apo-G4E, as verified by using NMR spectroscopy and fluorescence titrations. Purity and identity of G4E were verified by using SDS/PAGE and electrospray ionization MS. Proteins were concentrated by using Amicon concentrators (Millipore).\nFluorescence measurements were performed by using a home-built fluorimeter, as described. All titrations were performed in 0.3 M NaCl/10 mM Na2PO4 (pH 7.5)/1 μM zinc in 0.3×0.3 cm^2 fluorescence cuvette (Hellma), by using eIF4E concentration of 2 μM. […] Corrected relative fluorescence intensities were normalized, and fluorescence quenching curves were fit to a heuristic single-site-binding expression: I/I0=Kd^n/(x^n+Kd^n) where x is ligand concentration, Kd is the apparent dissociation constant, and n is the Hill coefficient."}, "eIF4E:m7G binding (G4E)": {"molecular_target": "T3, eIF4E:m7G binding (G4E) (UniProt P06654+P63073)", "T3 construct": "made in house; host or cells: E. coli BL21 (DE-3); construct a gift of Gerhard Wagner", "T3 sequence (P06654+P63073 fused)": "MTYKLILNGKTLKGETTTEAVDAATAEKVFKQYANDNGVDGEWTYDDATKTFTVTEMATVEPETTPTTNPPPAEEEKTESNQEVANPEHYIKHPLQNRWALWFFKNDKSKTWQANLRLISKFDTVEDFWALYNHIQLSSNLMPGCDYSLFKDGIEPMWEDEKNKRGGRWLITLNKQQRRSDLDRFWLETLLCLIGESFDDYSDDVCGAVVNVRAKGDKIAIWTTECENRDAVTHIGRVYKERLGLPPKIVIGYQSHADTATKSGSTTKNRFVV", "assay": "m7G-Sepharose affinity chromatography competition", "design": "species or system mouse", "method": "FIG. 9. […] Washed beads (three times with 75 bed volumes) were incubated with 50 uM of compounds as indicated for 30 min at room temperature. Beads were washed (three times with 75 bed volumes) to remove dissociated eIF4E, and eIF4E remaining bound to beads was resolved using SDS-PAGE, and visualized using Western blotting and chemiluminescence. […] Washed beads (five times with 50 bed volumes of LCB buffer) were incubated with 5 bed volumes of 50 uM of compounds as indicated for 20 min at 4° C. Then 20 uL of the supernatant containing dissociated eIF4E was transferred to a new tube, cleared of trace beads containing bound eIF4E, and resolved using SDS-PAGE, and visualized using Western blotting and chemiluminescence.\nm^7G-Sepharose beads (Amersham Pharmacia, 20-μl slurry) were bound with 1.5 ml of 2 μM G4E, purified as described above, in 0.3 M NaCl/0.1 M sodium phosphate (pH 7.5)/10 μM protease-free BSA (USB)/0.1% Nonidet P-40 (Buffer B) for 30 min at room temperature. […] Upon washing released G4E three times with Buffer B, G4E remaining bound to m^7G-Sepharose was boiled in Laemmli buffer (10% glycerol/2% SDS/100 mM DTT/80 mM Tris.HCl/0.06% bromophenol blue, pH 6.8), subjected to SDS/PAGE, and visualized by using Western blotting, as described below."}, "HCV polymerase": {"molecular_target": "HCV polymerase (Hepatitis C virus genotype 1a, UniProt P27958)", "sequence (P27958 2421-3011)": "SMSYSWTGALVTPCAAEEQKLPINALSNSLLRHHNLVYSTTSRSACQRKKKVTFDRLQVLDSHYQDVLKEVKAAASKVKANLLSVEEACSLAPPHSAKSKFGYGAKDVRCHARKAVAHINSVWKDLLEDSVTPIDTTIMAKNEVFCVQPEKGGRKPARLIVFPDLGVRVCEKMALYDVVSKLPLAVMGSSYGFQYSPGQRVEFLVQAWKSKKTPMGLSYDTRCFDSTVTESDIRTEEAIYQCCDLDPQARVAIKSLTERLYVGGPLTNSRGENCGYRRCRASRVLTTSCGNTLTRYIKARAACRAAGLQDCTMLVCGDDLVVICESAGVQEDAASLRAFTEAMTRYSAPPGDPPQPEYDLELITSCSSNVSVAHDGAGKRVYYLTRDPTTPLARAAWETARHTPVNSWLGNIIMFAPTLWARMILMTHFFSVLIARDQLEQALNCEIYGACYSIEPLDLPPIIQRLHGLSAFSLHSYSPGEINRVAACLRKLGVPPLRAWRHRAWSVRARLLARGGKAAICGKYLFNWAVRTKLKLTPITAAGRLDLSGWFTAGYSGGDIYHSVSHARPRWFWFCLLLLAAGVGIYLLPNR", "conditions": "read-out: dissociation constant for HCV polymerase; cited from earlier work"}},
  "note": "“And” between values parts separate entries of the source, which are not always exact repeats. Equal entries are not always repeated. “Also recorded” adds a separate entry of the source. Starred links: 1 amine or outer side, 2 acyl side, 3 side chain; linkers in the order of their positions; H or OH if unused. Positions of bridges follow the written chain, without caps; N, C: chain ends. Non-standard residues stand in square brackets, D forms with d. Residues, ends and D or L forms follow the SMILES beside them. Chains are numbered I, II in the order given. Actinocin(9to1) = Cc1c2oc3c(C)ccc(C(=O)[*:1])c3nc-2c(C(=O)[*:2])c(N)c1=O; NMeV = CN[C@H](C(=O)O)C(C)C; Sar = CNCC(=O)O",
  "data": [
    {"molecule": "Nc1nc2c(ncn2[C@@H]2O[C@H](CO)[C@@H](O)[C@H]2O)c(=O)[nH]1", "note": "[guanosine]", "values": [
      {"measurement": "binding to eIF4E relative to m7G cap, fold weaker", "setting": "eIF4E", "result": "> 5000", "unit": "fold"}
    ]},
    {"molecule": "Cn1c[n+]([C@@H]2O[C@H](COP(=O)(O)OP(=O)([O-])O)[C@@H](O)[C@H]2O)c2nc(N)[nH]c(=O)c21", "note": "[m7GDP]", "values": [
      {"measurement": "reduction of cap-driven firefly luciferase activity", "setting": "cap-driven translation; 1 mM, Yan et al. 2005", "result": "fourfold"}
    ]},
    {"molecule": "C[C@@H]1C[C@@H]([C@H](O)CC2CC(=O)NC(=O)C2)C(=O)[C@@H](C)C1", "note": "[cycloheximide]", "values": [
      {"measurement": "export of 4E-SE containing / cyclin D1 mRNA under inhibition of RNA or protein synthesis", "setting": "4E-SE mRNA export", "result": "not modulated"}
    ]},
    {"molecule": "NC(=O)c1ncn(C2OC(COP(=O)(O)OP(=O)(O)OP(=O)(O)OCC3OC(n4cnc5c(=O)[nH]c(N)nc54)C(O)C3O)C(O)C2O)n1", "note": "(centres unmarked) [RpppG]", "values": [
      {"measurement": "inhibition of cap-driven translation", "setting": "cap-driven translation; Westman et al. 2005", "result": "does not"}
    ]},
    {"molecule": "Cc1c2oc3c(C)ccc(C(=O)N[C@@H]4C(=O)N[C@H](C(C)C)C(=O)N5CCC[C@H]5C(=O)N(C)CC(=O)N(C)[C@@H](C(C)C)C(=O)O[C@@H]4C)c3nc-2c(C(=O)N[C@@H]2C(=O)N[C@H](C(C)C)C(=O)N3CCC[C@H]3C(=O)N(C)CC(=O)N(C)[C@@H](C(C)C)C(=O)O[C@@H]2C)c(N)c1=O", "note": "[actinomycin D] (I: T[dV]P[Sar][NMeV] / II: T[dV]P[Sar][NMeV]; ester I:1-I:C, II:1-II:C; linker I:N-II:N via Actinocin(9to1))", "values": [
      {"measurement": "export of 4E-SE containing / cyclin D1 mRNA under inhibition of RNA or protein synthesis", "setting": "4E-SE mRNA export", "result": "did not affect export"}
    ]},
    {"molecule": "Cn1c[n+]([C@@H]2O[C@H](COP(=O)(O)OP(=O)([O-])OP(=O)(O)OC[C@H]3O[C@@H](n4cnc5c(=O)[nH]c(N)nc54)[C@H](O)[C@@H]3O)[C@@H](O)[C@H]2O)c2nc(N)[nH]c(=O)c21", "note": "[m7GpppG]", "values": [
      {"measurement": "association of cyclin D1 mRNA with nuclear eIF4E", "setting": "[1]", "result": "successfully disrupts"},
      {"measurement": "Kd", "setting": "[2]", "result": "~10", "unit": "nM"},
      {"measurement": "analog concentration inhibiting cap-driven translation", "setting": "cap-driven translation; Westman et al. 2005", "result": "ca. 0.1 mM"}
    ]},
    {"molecule": "NC(=O)c1cn([C@@H]2O[C@H](CO)[C@@H](O)[C@H]2O)nn1", "note": "[Rib4C, 1-β-D-ribofuranosyl-1,2,3-triazole-4-carboxamide]", "values": [
      {"measurement": "binding to eIF4E", "setting": "eIF4E wild-type; in vitro", "result": "failed to bind eIF4E"}
    ]},
    {"molecule": "Nc1nc2c(ncn2[C@@H]2O[C@H](COP(=O)(O)OP(=O)(O)OP(=O)(O)OC[C@H]3O[C@@H](n4cnc5c(=O)[nH]c(N)nc54)[C@H](O)[C@@H]3O)[C@@H](O)[C@H]2O)c(=O)[nH]1", "note": "[GpppG]", "values": [
      {"measurement": "association of cyclin D1 mRNA with nuclear eIF4E", "setting": "[1]", "result": "does not disrupt"}
    ]},
    {"molecule": "CCC(=C/[C@H](C)C/C=C/C(C)=C/[C@@H](C)C(=O)[C@@H](C)[C@H](O)[C@@H](C)C/C(C)=C/C(=O)O)/C=C/[C@@H]1OC(=O)C=C[C@@H]1C", "note": "[LMB]", "values": [
      {"measurement": "export of LacZ-4E-SE mRNA", "setting": "4E-SE mRNA export; 10 ng/ml for 4 h", "result": "sensitive to LMB; also recorded: suppressed export"}
    ]},
    {"molecule": "NC(=O)c1ncn([C@@H]2O[C@H](CO[P@@](=O)(O)O[P@](=O)(O)OP(=O)(O)O)[C@@H](O)[C@H]2O)n1", "note": "[RTP, Ribavirin-5′ triphosphate]", "values": [
      {"measurement": "Kd", "setting": "eIF4E wild-type; fluorescence spectroscopy, wild-type eIF4E, read-out: apparent dissociation constant (Kd) for eIF4E", "result": "130 nM and ~100 nM"},
      {"measurement": "competition with m7G binding, protocol of Yan et al.", "setting": "eIF4E:m7G binding (G4E); 0.1 M KCl, 10 mM HEPES-KOH pH 8.0, presumed 4 C", "result": "apparent failure of RTP to compete"},
      {"measurement": "competition with eIF4E:m7G binding", "setting": "eIF4E:m7G binding (G4E); 0.3 M NaCl, 0.1 M sodium phosphate pH 7.5, room temperature, micromolar concentrations", "result": "compete with the binding of eIF4E:m7G"},
      {"measurement": "IC50", "setting": "eIF4E:m7G binding (G4E); Western blot of eIF4E remaining bound, read-out: concentration giving 50% reduction of eIF4E binding to m7G-Sepharose", "result": "~1000", "unit": "nM"},
      {"measurement": "Ki", "setting": "eIF4E:m7G binding (G4E); read-out: apparent inhibition constant (Ki) of eIF4E:m7G binding", "result": "~300", "unit": "nM"},
      {"measurement": "Kd", "setting": "HCV polymerase", "result": 580000, "unit": "nM"}
    ]}
  ]
}
